The record followed here is patent US5843437A, “A82846 antibiotics” (Eli Lilly and Company, priority 1995, dated 1998).

Assay [1] has as its system Haemophilus influenzae C.L. The class given is cell-based. The conditions noted are these: H. influenzae C.L., ampicillin-sensitive strain; agar dilution. The protocol: (§1) The MIC's in Tables VII and VIII were determined by standard agar-dilution assays.
(In general: Agar dilution tests growth on a series of plates holding different concentrations.)

The subject of assay [2] is Pseudomonas aeruginosa X239. The class given is cell-based. Conditions: P. aeruginosa X239; agar dilution. The protocol:
as §1

Assay [3] concerns Streptococcus Group D 2041. Type of assay: cell-based. Conditions: agar dilution. Here is the method: as §1
In assay [4] the test system is Klebsiella pneumoniae X26. The class given is cell-based. The conditions noted are these: K. pneumoniae X26; agar dilution. Here is the method:
as §1

The subject of assay [5] is Haemophilus influenzae 76. Type of assay: cell-based. The conditions noted are these: H. influenzae 76, ampicillin-resistant strain; agar dilution. The protocol:
as §1

Assay [6] relates to Streptococcus Group D X66. The class given is cell-based. Conditions: agar dilution. Here is the method: as §1
The subject of assay [7] is Staphylococcus aureus V41. Type of assay: cell-based. Conditions: S. aureus V41, penicillin-resistant strain; agar dilution. The protocol:
as §1

Assay [8] relates to Staphylococcus epidermidis 222. Type of assay: cell-based. Conditions: S. epidermidis 222; agar dilution. Here is the method:
as §1

In assay [9] the test system is Staphylococcus aureus X400. Type of assay: cell-based. The conditions noted are these: S. aureus X400, methicillin-resistant strain; agar dilution. The protocol: as §1
The subject of a further assay is Escherichia coli EC14. The class given is cell-based. Conditions: E. coli EC14; agar dilution. The protocol:
as §1

Assay [10] concerns Staphylococcus aureus X1.1. Type of assay: cell-based. The conditions noted are these: S. aureus X1.1; agar dilution. The protocol: as §1
The subject of assay [11] is Staphylococcus epidermidis 270. Type of assay: cell-based. Conditions: S. epidermidis 270; agar dilution. Here is the method:
as §1

In assay [12] the test system is Streptococcus pneumoniae Park I. Type of assay: cell-based. The conditions noted are these: S. pneumoniae Park I; agar dilution. The protocol:
as §1

Assay [13] has as its system Streptococcus pyogenes C203. Type of assay: cell-based. Conditions: S. pyogenes C203; agar dilution. The protocol: as §1
The next assay relates to Streptococcus pyogenes. As to the kind of experiment: protection of mice experimentally infected with test organism (Table X). Conditions: mice, subcutaneous, 1 and 4 hours postinfection. The class given is in vivo. The protocol:
(§2) The A82846 antibiotics have also shown in vivo antimicrobial activity against experimentally-induced infections in laboratory animals. When two doses of test compound were administered to mice experimentally infected with the test organism, the activity observed was measured as an ED50 value [effective dose in mg/kg to protect 50% of the test animals: see Warren Wick, et al., J. Bacteriol. 81, 233-235 (1961)].
(§3) ^a mg/kg × 2; doses administered subcutaneously to mice 1 and 4

For another assay, the system named is Staphylococcus aureus. Described as above. The class given is in vivo. Conditions: mice, subcutaneous, 1 and 4 hours postinfection. The protocol: as §2, §3
In another assay the test system is Streptococcus pneumoniae. The description is as above. Conditions: mice, subcutaneous, 1 and 4 hours postinfection. The class given is in vivo. Here is the method:
as §2, §3

Assay [14] relates to Cultures A82846 and A82846.1. In words: resistance to antibiotics, antibiotic sensitivity discs on seeded agar plates.
For another assay, the system named is N. aerocolonigenes. In words: resistance to antibiotics, sensitivity discs (Table III). The class given is cell-based, Nocardia aerocolonigenes.
For the next assay, the system named is A82846. The description is as above. The class given is cell-based, Nocardia orientalis. The conditions noted are these: culture A82846.
Another assay relates to N. orientalis. The assay is described as above. Type of assay: cell-based, Nocardia orientalis.

In brackets after ≈: the same amount, converted by molar mass. Bridge positions count the residues as written; N and C are the ends. Square brackets hold non-standard residues; d marks the D form. Peptide text beside a SMILES is read from it. * marks the point of attachment. Ileψ(thiazoline)Cys = CC[C@H](C)[C@H](N)C1=N[C@H](C(=O)*)CS1; dOrn = NCCC[C@@H](N)C(=O)O

Regarding `CN[C@@H](CC(C)C)C(=O)N[C@H]1C(=O)N[C@H](CC(N)=O)C(=O)N[C@H]2C(=O)N[C@H]3C(=O)N[C@@H](C(=O)NC(C(=O)O)c4cc(O)cc(O)c4-c4cc3ccc4O)[C@@H](O[C@H]3C[C@](C)(N)[C@H](O)[C@@H](C)O3)c3ccc(cc3)Oc3cc2cc(c3O[C@H]2O[C@@H](CO)[C@@H](O)[C@H](O)[C@@H]2O[C@H]2C[C@](C)(N)[C@H](O)[C@@H](C)O2)Oc2ccc(cc2)[C@@H]1O` (stereo partly drawn) [A82846C], the MIC result was “-- (Not active at 128 mcg/mL, the highest level tested)” in assay [1]; “-- (Not active at 128 mcg/mL, the highest level tested)” in assay [2]; 4 µg/mL (≈ 2.63 µM) in assay [3]; “-- (Not active at 128 mcg/mL, the highest level tested)” in assay [4]; “-- (Not active at 128 mcg/mL, the highest level tested)” in assay [5]; 2 µg/mL (≈ 1.31 µM) in [6]. In addition, the MIC in [7] was 1 µg/mL (≈ 0.656 µM); in assay [8], 1 µg/mL (≈ 0.656 µM); in assay [9], 1 µg/mL (≈ 0.656 µM); against Escherichia coli EC14, “-- (Not active at 128 mcg/mL, the highest level tested)”; in assay [10] it was 1 µg/mL (≈ 0.656 µM); in assay [11], 1 µg/mL (≈ 0.656 µM). Besides, the figures for the MIC in assay [12] and in assay [13] were 2 µg/mL (≈ 1.31 µM) and 1 µg/mL (≈ 0.656 µM), respectively. Besides, the figures for the “ED50 Value” in the assay on Streptococcus pyogenes, in the assay on Staphylococcus aureus and in the assay on Streptococcus pneumoniae were 2.71 mg/kg × 2, 2.18 mg/kg × 2 and 5.87 mg/kg × 2, respectively.

On to `CC[C@H](C)[C@H](N)C1=N[C@H](C(=O)N[C@@H](CC(C)C)C(=O)N[C@H](CCC(=O)O)C(=O)N[C@H](C(=O)N[C@H]2CCCCNC(=O)[C@H](CC(N)=O)NC(=O)[C@@H](CC(=O)O)NC(=O)[C@H](Cc3cnc[nH]3)NC(=O)[C@@H](Cc3ccccc3)NC(=O)[C@H]([C@@H](C)CC)NC(=O)[C@@H](CCCN)NC2=O)[C@@H](C)CC)CS1` [bacitracin] ({Ileψ(thiazoline)Cys}-L[dE]IK[dOrn]I[dF]H[dD]N; lactam 4-C), for which the antibiotic resistance entry in assay [14] (disc 10 units) is “resistant”.

On to `CC(=O)OCC1=C(C(=O)O)N2C(=O)[C@@H](NC(=O)Cc3cccs3)[C@H]2SC1` [cephalothin], for which the antibiotic resistance result in assay [14] (disc 30 μg) is on record as “resistant”.

Consider `O=C(N[C@H](CO)[C@H](O)c1ccc([N+](=O)[O-])cc1)C(Cl)Cl` [chloramphenicol], for which the antibiotic resistance entry in assay [14] (disc 30 μg) is “sensitive”.

Regarding `CC[C@H]1OC(=O)[C@H](C)[C@@H](O[C@H]2C[C@@](C)(OC)[C@@H](O)[C@H](C)O2)[C@H](C)[C@@H](O[C@@H]2O[C@H](C)C[C@H](N(C)C)[C@H]2O)[C@](C)(O)C[C@@H](C)C(=O)[C@H](C)[C@@H](O)[C@]1(C)O` [erythromycin], the antibiotic resistance result in assay [14] (disc 15 μg) was “resistant”.

In the case of `CCC[C@@H]1C[C@@H](C(=O)N[C@@H]([C@H]2O[C@H](SC)[C@H](O)[C@@H](O)[C@H]2O)[C@@H](C)O)N(C)C1` [lincomycin], in assay [14] (disc 2 μg), the antibiotic resistance entry was “resistant”.

With `C1N2CN3CN1CN(C2)C3` [mandelamine], the antibiotic resistance result in assay [14] (disc 3 μg) is on record as “sensitive”.

As to `CCn1cc(C(=O)O)c(=O)c2ccc(C)nc21` [nalidixic acid], the antibiotic resistance result in assay [14] (disc 30 μg) was “resistant”.

With `CO[C@@H]1[C@@H](OC(N)=O)[C@@H](O)[C@H](Oc2ccc3c(O)c(NC(=O)c4ccc(O)c(CC=C(C)C)c4)c(=O)oc3c2C)OC1(C)C` [novobiocin], the antibiotic resistance entry in assay [14] (disc 30 μg) is listed as “sensitive”.

Turning to `CO[C@H]1C[C@H](O[C@H]2[C@H](C)[C@@H](O[C@@H]3O[C@H](C)C[C@H](N(C)C)[C@H]3O)[C@@H](C)C[C@@]3(CO3)C(=O)[C@H](C)[C@@H](O)[C@@H](C)[C@@H](C)OC(=O)[C@@H]2C)O[C@@H](C)[C@@H]1O` [oleandomycin], in [14] (disc 15 μg), the antibiotic resistance entry is on record as “resistant”.

Regarding `CC1(C)S[C@@H]2[C@H](NC(=O)Cc3ccccc3)C(=O)N2[C@H]1C(=O)O` [penicillin G], in assay [14] (disc 10 units), the antibiotic resistance entry is recorded as “resistant”.

Take `CO[C@H]1/C=C/O[C@@]2(C)Oc3c(C)c(O)c4c(O)c(c(/C=N/N5CCN(C)CC5)c(O)c4c3C2=O)NC(=O)/C(C)=C\C=C\[C@H](C)[C@H](O)[C@@H](C)[C@@H](O)[C@@H](C)[C@H](OC(C)=O)[C@@H]1C` [rifampin]: the antibiotic resistance entry in [14] (disc 5 μg) was “sensitive”.

As for `[H]/N=C(/N)N[C@H]1[C@H](O)[C@@H](O)[C@H](O[C@@H]2O[C@@H](C)[C@](O)(C=O)[C@H]2O[C@@H]2O[C@@H](CO)[C@H](O)[C@@H](O)[C@@H]2NC)[C@@H](N/C(N)=N\[H])[C@@H]1O` [streptomycin], the antibiotic resistance result in assay [14] (disc 10 μg) is listed as “resistant”.

For the compound `Nc1ccc(S(=O)(=O)Nc2ncccn2)cc1` [sulfadiazine], in [14] (disc 300 μg), the antibiotic resistance entry is listed as “resistant”.

Consider `CN(C)C1C(=O)C(C(N)=O)=C(O)C2(O)C(=O)C3=C(O)c4c(O)cccc4C(C)(O)C3CC12` (stereo not drawn) [tetracycline], for which the antibiotic resistance entry in [14] (disc 30 μg) is reported as “sensitive”.

Take `NC[C@H]1O[C@H](O[C@H]2[C@H](O)[C@@H](O[C@H]3O[C@H](CO)[C@@H](O)[C@H](N)[C@H]3O)[C@H](N)C[C@@H]2N)[C@H](N)C[C@@H]1O` [tobramycin]: in assay [14] (disc 10 μg), the antibiotic resistance entry is recorded as “resistant”.

Take `COc1cc(Cc2cnc(N)nc2N)cc(OC)c1OC` [trimethoprim]: in assay [14] (disc 5 μg), the antibiotic resistance entry was “resistant”.

Take gentamicin: the antibiotic resistance entry in [14] (disc 10 μg) is on record as “resistant”. Further, the entries for the “Resistance to” value in the assay on N. aerocolonigenes (10 μg), in the assay on A82846 (10 μg) and with N. orientalis (10 μg) were “-”, “+” and “-”, respectively.

Take neomycin: the antibiotic resistance result in assay [14] (disc 30 μg) is recorded as “sensitive”. In addition, the “Resistance to” value with N. aerocolonigenes (30 μg), in the assay on A82846 (30 μg) and with N. orientalis (30 μg) was “-” in each case.

With polymixin B, the antibiotic resistance entry in assay [14] (disc 300 units) is given as “resistant”. The “Resistance to” value in the assay on N. aerocolonigenes (300 units), in the assay on A82846 (300 units) and with N. orientalis (300 units) was “+” each time.
